In US20250388565A1, “ESTROGEN RECEPTOR ALPHA DEGRADERS AND METHODS OF USE THEREOF” (Relay Therapeutics, Inc., priority 2022, published 2025):

Target: T1, ERα protein (HiBiT-tagged) in ESR1_HiBiT KI MCF7 cells (Homo sapiens, UniProt P03372)
T1 sequence (P03372 1-595): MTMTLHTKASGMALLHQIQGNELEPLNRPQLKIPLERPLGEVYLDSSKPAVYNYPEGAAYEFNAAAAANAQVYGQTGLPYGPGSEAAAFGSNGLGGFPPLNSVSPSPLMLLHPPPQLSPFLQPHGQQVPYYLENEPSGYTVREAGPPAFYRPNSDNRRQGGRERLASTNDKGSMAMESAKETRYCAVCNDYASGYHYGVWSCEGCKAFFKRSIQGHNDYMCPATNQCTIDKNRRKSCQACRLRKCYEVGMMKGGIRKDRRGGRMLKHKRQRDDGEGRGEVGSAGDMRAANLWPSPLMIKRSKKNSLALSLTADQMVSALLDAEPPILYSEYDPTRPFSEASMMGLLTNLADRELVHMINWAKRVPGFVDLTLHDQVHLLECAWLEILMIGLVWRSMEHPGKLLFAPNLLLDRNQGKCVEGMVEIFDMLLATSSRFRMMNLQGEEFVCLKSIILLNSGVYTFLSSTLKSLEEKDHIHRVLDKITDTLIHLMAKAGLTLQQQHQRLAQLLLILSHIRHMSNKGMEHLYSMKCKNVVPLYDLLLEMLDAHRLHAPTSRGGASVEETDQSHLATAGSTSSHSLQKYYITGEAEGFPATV
Assay: Nano Glo HiBiT Lytic Degradation Assay
Format: cell-based
Settings: 6 hours with compound, 14-point dose response 1:3, bell-shape curve fit, half-maximal effect of first Hill model, read-out: MCF7 ESR1 HiBiT - (DC50)
Method in brief: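 Lytic Nano-Glo HiBiT luminescence quantified ERα remaining after a 6 h, 37° C compound exposure of MCF7 cells carrying endogenous HiBiT-tagged ESR1. Dosing used 14 threefold dilutions from a 10 mM DMSO stock (0.1% DMSO final), run in duplicate. Signals were corrected for cell-free background and expressed relative to DMSO, and DC50 came from a bell-shaped curve fit (first Hill model half-maximum).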

SMILES | DC50 [µM]
Cn1nccc1[C@H]1CCc2cc(O)ccc2[C@H]1c1ccc(N2CCC(CN3CCN(c4ccc5c(c4)CN([C@H]4CCC(=O)NC4=O)C5=O)CC3)CC2)cc1 (single isomer, unassigned) [Compound I-24] | ≥ 10
O=C1CC[C@H](N2Cc3cc(N4CCC(CN5CCC(n6cc([C@@H]7c8ccc(O)cc8CC[C@@H]7c7ccccc7)cn6)CC5)CC4)ccc3C2=O)C(=O)N1 (single isomer, unassigned) [Compound I-409] | ≥ 10
O=C1CCC(N2Cc3cc(N4CCN(CC5CCN(c6c(F)cc([C@H]7c8ccc(O)cc8CC[C@H]7C7CCCCC7)cc6F)CC5)CC4)ccc3C2=O)C(=O)N1 (stereo in doubt) [Compound I-160, (R)-3-(5-(4-((1-(4-((1S,2S)-2-cyclohexyl-6-hydroxy-1,2,3,4-tetrahydronaphthalen-1-yl)-2,6-difluorophenyl)piperidin-4-yl)methyl)piperazin-1-yl)-1-oxoisoindolin-2-yl)piperidine-2,6-dione] | ≥ 10
O=C1CCC(N2Cc3cc(N4CCN(CC5CCN(c6ccc([C@@H]7c8ccc(O)cc8CC[C@@H]7C7CCCC7)cc6)CC5)CC4)ccc3C2=O)C(=O)N1 (single isomer, unassigned) [Compound I-52] | 0.009
Cn1c(=O)n([C@@H]2CCC(=O)NC2=O)c2ccc(N3CCN(CC4CCN(c5ccc([C@@H]6c7ccc(O)cc7C(F)(F)C[C@@H]6c6ccccc6)cc5)CC4)CC3)cc21 (single isomer, unassigned) [Compound I-278] | 0.0121
O=C1CCC(c2ccc(N3CCC4(CCN(CC5CCN(c6ccc([C@@H]7c8ccc(O)cc8CC[C@@H]7c7ccccc7)cc6)CC5)C4)CC3)cc2)C(=O)N1 (single isomer, unassigned) [Compound I-421] | 0.00077
C[C@@H](C1CCN(c2ccc([C@@H]3c4ccc(O)cc4CC[C@@H]3c3ccccc3)cc2)CC1)N1CCN(c2ccc3c(c2)CN(C2CCC(=O)NC2=O)C3=O)CC1 (single isomer, unassigned) [II-70] | 0.005
CC(C)c1ccccc1[C@@H]1OCc2cc(O)ccc2[C@@H]1c1ccc(N2CCC(CN3CCN(c4ccc5c(c4)CN([C@H]4CCC(=O)NC4=O)C5=O)CC3)CC2)cc1 [Compound I-352, (S)-3-(5-(4-((1-(4-((3R,4S)-7-hydroxy-3-(2-isopropylphenyl)isochroman-4-yl)phenyl)piperidin-4-yl)methyl)piperazin-1-yl)-1-oxoisoindolin-2-yl)piperidine-2,6-dione] | 0.017
CC(C)[C@@H]1CC(F)(F)c2cc(O)ccc2[C@@H]1c1ccc(N2CCC(CN3CCN(c4ccc5c(c4)CN([C@H]4CCC(=O)NC4=O)C5=O)CC3)CC2)cc1 [Compound I-153, (S)-3-(5-(4-((1-(4-((1S,2S)-4,4-difluoro-6-hydroxy-2-isopropyl-1,2,3,4-tetrahydronaphthalen-1-yl)phenyl)piperidin-4-yl)methyl)piperazin-1-yl)-1-oxoisoindolin-2-yl)piperidine-2,6-dione] | 0.013
O=C1CC[C@H](N2Cc3cc(N4CCN(CC5CCN(c6ccc([C@@H]7c8ccc(O)cc8CC[C@@H]7c7cccc8c7CCC8)cc6)CC5)CC4)ccc3C2=O)C(=O)N1 (single isomer, unassigned) [Compound I-410] | ≥ 10
O=C1CC[C@H](N2Cc3cc(N4CCN(CC5CCN(c6ccc([C@H]7c8ccc(O)cc8C(F)(F)C[C@H]7c7ccccc7)cc6F)CC5)CC4)ccc3C2=O)C(=O)N1 [Compound I-328, (S)-3-(5-(4-((1-(4-((1S,2R)-4,4-difluoro-6-hydroxy-2-phenyl-1,2,3,4-tetrahydronaphthalen-1-yl)-2-fluorophenyl)piperidin-4-yl)methyl)piperazin-1-yl)-1-oxoisoindolin-2-yl)piperidine-2,6-dione] | 0.009
O=C1CC[C@H](N2Cc3cc(N4CCN(CC5CCN(c6ccc([C@H]7c8ccc(O)cc8CC[C@H]7C7CCOCC7)cc6)CC5)CC4)ccc3C2=O)C(=O)N1 [Compound I-33, (3S)-3-[5-[4-[[1-[4-[(1S,2S)-6-hydroxy-2-tetrahydropyran-4-yl-tetralin-1-yl]phenyl]-4-piperidyl]methyl]piperazin-1-yl]-1-oxo-isoindolin-2-yl]piperidine-2,6-dione] | 0.173
O=C1CC[C@H](N2Cc3cc(N4CCN(CC5CCN(c6ccc([C@H]7c8ccc(O)cc8CC[C@H]7c7cccc(O)c7)cc6)CC5)CC4)ccc3C2=O)C(=O)N1 [Compound I-127, (3S)-3-[5-[4-[[1-[4-[(1S,2R)-6-hydroxy-2-(3-hydroxyphenyl)tetralin-1-yl]phenyl]-4-piperidyl]methyl]piperazin-1-yl]-1-oxo-isoindolin-2-yl]piperidine-2,6-dione] | ≥ 10
O=C1CC[C@H](N2Cc3cc(N4CCN(CC5CCN(c6ccc(C7c8ccc(O)cc8CCC7C7CCCCC7)cn6)CC5)CC4)ccc3C2=O)C(=O)N1 (stereo in doubt) [Compound I-154, (S)-3-(5-(4-((1-(5-((1S,2R)-2-cyclohexyl-6-hydroxy-1,2,3,4-tetrahydronaphthalen-1-yl)pyridin-2-yl)piperidin-4-yl)methyl)piperazin-1-yl)-1-oxoisoindolin-2-yl)piperidine-2,6-dione] | 3.3
O=C1CC[C@H](N2Cc3cc(N4CCN(CC5CCN(c6ccc([C@@H]7c8ccc(O)cc8CC[C@@H]7c7cccc8c7CCCC8)cc6)CC5)CC4)ccc3C2=O)C(=O)N1 (single isomer, unassigned) [Compound I-62] | 0.002
O=C1CCC(N2Cc3cc(N4CC5(CN(CC6CCN(c7ccc([C@@H]8c9ccc(O)cc9CC[C@@H]8c8ccccc8)cc7)CC6)C5)C4)ccc3C2=O)C(=O)N1 (single isomer, unassigned) [II-39] | ≥ 10
C[C@@]1(C2CCCCC2)OCc2cc(O)ccc2[C@@H]1c1ccc(N2CCC(CN3CCN(c4ccc5c(c4)CN([C@H]4CCC(=O)NC4=O)C5=O)CC3)CC2)cc1 (single isomer, unassigned) [Compound I-256] | 0.018
O=C1CC[C@H](N2Cc3cc(N4CCN(C[C@H]5CCCN(c6ccc([C@H]7c8ccc(O)cc8CC[C@H]7c7ccccc7)cc6)C5)CC4)ccc3C2=O)C(=O)N1 (single isomer, unassigned) [II-23] | ≥ 10
O=C1CC[C@H](N2Cc3cc(N4CCN(CC5CCN(c6ccc([C@@H]7c8ccc(O)cc8CC[C@@]78CCc7ccccc78)cc6)CC5)CC4)ccc3C2=O)C(=O)N1 [Compound I-260] | 0.00075
Cc1cc(F)c([C@@H]2CCc3cc(O)ccc3[C@@H]2c2ccc(N3CCC(CN4CCN(c5ccc6c(c5)CN([C@H]5CCC(=O)NC5=O)C6=O)CC4)CC3)cc2)cc1F [II-76] | ≥ 10
Cc1cc(F)ccc1[C@H]1OCc2cc(O)ccc2[C@H]1c1ccc(N2CCC(CN3CCN(c4ccc5c(c4)CN([C@H]4CCC(=O)NC4=O)C5=O)CC3)CC2)cc1 [Compound I-371, (S)-3-(5-(4-((1-(4-((3S,4R)-3-(4-fluoro-2-methylphenyl)-7-hydroxyisochroman-4-yl)phenyl)piperidin-4-yl)methyl)piperazin-1-yl)-1-oxoisoindolin-2-yl)piperidine-2,6-dione] | 0.00017
O=C1CC[C@H](N2Cc3cc(N4CCN(CC5CCN(c6ccc([C@@H]7c8ccc(O)c(Cl)c8CC[C@@H]7c7ccccc7)cc6Cl)CC5)CC4)ccc3C2=O)C(=O)N1 [II-64] | 0.016
O=C1CC[C@H](N2Cc3cc(N4CC5(CCN(CC6CCN(c7ccc([C@H]8c9ccc(O)cc9CC[C@H]8c8ccccc8)cc7)CC6)CC5)C4)ccc3C2=O)C(=O)N1 (single isomer, unassigned) [II-96] | ≥ 10
C[C@H]1O[C@@H](C2CCCCC2)[C@H](c2ccc(N3CCC(CN4CCN(c5ccc6c(c5)CN([C@H]5CCC(=O)NC5=O)C6=O)CC4)CC3)cc2)c2ccc(O)cc21 (single isomer, unassigned) [Compound I-253] | 0.00045
O=C1CC[C@H](N2Cc3cc(N4CCN(CC5CCN(c6ccc([C@H]7c8ccc(O)cc8CC[C@H]7c7ccccn7)cc6)CC5)CC4)ccc3C2=O)C(=O)N1 [Compound I-114, (3S)-3-[5-[4-[[1-[4-[(1S,2R)-6-hydroxy-2-(2-pyridyl)tetralin-1-yl]phenyl]-4-piperidyl]methyl]piperazin-1-yl]-1-oxo-isoindolin-2-yl]piperidine-2,6-dione] | ≥ 10
O=C1CC[C@H](N2Cc3cc(N4CCN(CC5CCN(c6c(F)cc([C@H]7c8ccc(O)cc8CC[C@H]7c7ccccc7)cc6F)CC5)CC4)ccc3C2=O)C(=O)N1 [II-83] | 0.424
Cc1cc(F)c([C@@H]2OCc3cc(O)ccc3[C@@H]2c2ccc(N3CCC(CN4CCN(c5ccc6c(c5)CN([C@H]5CCC(=O)NC5=O)C6=O)CC4)CC3)cc2)cc1F [Compound I-370, (S)-3-(5-(4-((1-(4-((3R,4S)-3-(2,5-difluoro-4-methylphenyl)-7-hydroxyisochroman-4-yl)phenyl)piperidin-4-yl)methyl)piperazin-1-yl)-1-oxoisoindolin-2-yl)piperidine-2,6-dione] | 3.3
